Common to all, as to assay: relative viability (nuclei count vs DMSO), 5 days (fraction); higher = more cells survive
Compound in the test “GSK126 + Phenformin”: CC[C@H](C)N1C=C(C2=C(C=C(C=C21)C3=CN=C(C=C3)N4CCNCC4)C(=O)NCC5=C(C=C(NC5=O)C)C)C [GSK126] + N=C(N)NC(=N)NCCc1ccccc1 [Phenformin] (partner 250 µM)
The method, boiled down: (§1)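 Cells from lung cancer lines were seeded into 1536-well plates and, one day later, dosed by pin tool. Treatments were either a single drug or a fixed dose of an anchor drug with five library-drug doses (not always all listed) in √10 steps. After 5 days, nuclei were stained in a one-step fixation (final 0.05% Triton X-100, 1% formaldehyde, 1 ug/ml Hoechst) and counted on 4× images, and relative viability is the treated-to-vehicle nuclei ratio, as the median of duplicate plates.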

Compound in the test “Carboplatin + Olaparib”: C1CC(C1)(C(=O)O)C(=O)O.[NH2-].[NH2-].[Pt+2] [Carboplatin] + O=C(c1cc(Cc2n[nH]c(=O)c3ccccc23)ccc1F)N1CCN(C(=O)C2CC2)CC1 [Olaparib] (partner 8 µM)
Put shortly: as §1

Compound in the test “MLN4924 + Olaparib”: NS(=O)(=O)OC[C@@H]1C[C@@H](n2ccc3c(N[C@H]4CCc5ccccc54)ncnc32)C[C@@H]1O [MLN4924] + O=C(c1cc(Cc2n[nH]c(=O)c3ccccc23)ccc1F)N1CCN(C(=O)C2CC2)CC1 [Olaparib] (partner 8 µM)
The method, boiled down:
as §1

Compound in the test “MLN4924 + Palbociclib”: NS(=O)(=O)OC[C@@H]1C[C@@H](n2ccc3c(N[C@H]4CCc5ccccc54)ncnc32)C[C@@H]1O [MLN4924] + CC(=O)c1c(C)c2cnc(Nc3ccc(N4CCNCC4)cn3)nc2n(C2CCCC2)c1=O [Palbociclib] (partner 0.5 µM)
Put shortly:
as §1

UMC-11: the relative viability with GSK126 + Phenformin (first compound 0.08 µM) worked out at 0.35; with GSK126 + Phenformin (first compound 0.253 µM), 0.344; in the test with GSK126 + Phenformin (first compound 0.8 µM) it was 0.312; in the test with GSK126 + Phenformin (first compound 2.53 µM) it was 0.32; with GSK126 + Phenformin (first compound 8 µM) it was 0.3; in the test with Carboplatin + Olaparib (first compound 0.08 µM), 0.72. Further, the relative viability with Carboplatin + Olaparib (first compound 0.253 µM) was 0.573; with Carboplatin + Olaparib (first compound 0.8 µM) it was 0.433; with Carboplatin + Olaparib (first compound 2.53 µM), 0.381; in the test with Carboplatin + Olaparib (first compound 8 µM), 0.345; with MLN4924 + Olaparib (first compound 0.04 µM), 0.408; with MLN4924 + Olaparib (first compound 0.1265 µM) it was 0.246. Besides, the relative viability came out at 0.255 with MLN4924 + Olaparib (first compound 0.4 µM); 0.154 in the test with MLN4924 + Olaparib (first compound 1.265 µM); 0.138 with MLN4924 + Olaparib (first compound 4 µM); 0.335 with MLN4924 + Palbociclib (first compound 0.04 µM); 0.336 in the test with MLN4924 + Palbociclib (first compound 0.1265 µM); 0.321 with MLN4924 + Palbociclib (first compound 0.4 µM). In addition, the relative viability worked out at 0.245 in the test with MLN4924 + Palbociclib (first compound 1.265 µM) and 0.249 in the test with MLN4924 + Palbociclib (first compound 4 µM).
